Experimental data: PMC7436013, “Design, Synthesis, and Biological Investigation of Novel Classes of 3-Carene-Derived Potent Inhibitors of TDP1” (Molecules, 2020)
“Also recorded” adds a separate entry of the source.

Assays:
in vivo Parkinson model = conditions: ref [24]; cited from earlier work
[1] = ref [24]; cited from earlier work
TDP1 = biological target: T1, TDP1 (Homo sapiens, UniProt Q9NUW8); assay: Real-time detection of TDP1 activity with fluorescent oligonucleotide biosensor; assay type: biochemical; conditions: for IC50: real-time fluorescent oligonucleotide biosensor, 1.5 nM TDP1, 50 nM substrate, read-out: IC50, TDP1 inhibition
T1 construct: made in house; host or cells: Escherichia coli
T1 sequence (Q9NUW8 whole entry): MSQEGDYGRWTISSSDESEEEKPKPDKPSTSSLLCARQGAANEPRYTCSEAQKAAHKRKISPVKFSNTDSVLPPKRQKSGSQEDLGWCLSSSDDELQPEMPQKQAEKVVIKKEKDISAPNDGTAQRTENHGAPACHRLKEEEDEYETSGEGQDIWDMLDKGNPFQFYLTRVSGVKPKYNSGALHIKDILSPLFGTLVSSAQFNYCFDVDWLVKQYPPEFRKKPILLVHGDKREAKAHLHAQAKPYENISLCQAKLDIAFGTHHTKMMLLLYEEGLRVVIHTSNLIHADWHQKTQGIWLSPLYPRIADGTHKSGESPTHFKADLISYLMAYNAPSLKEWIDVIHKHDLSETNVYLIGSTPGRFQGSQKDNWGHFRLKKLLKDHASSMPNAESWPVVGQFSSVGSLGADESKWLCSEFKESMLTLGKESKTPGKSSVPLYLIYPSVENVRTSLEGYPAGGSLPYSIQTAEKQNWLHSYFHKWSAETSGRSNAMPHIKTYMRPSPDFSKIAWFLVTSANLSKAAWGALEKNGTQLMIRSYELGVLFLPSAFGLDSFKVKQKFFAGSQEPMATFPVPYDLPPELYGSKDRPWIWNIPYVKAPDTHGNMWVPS
Description: The compounds synthesized starting from (+)-3-carene 8 were tested for their TDP1 inhibitory properties by measuring their IC50 values using a real-time fluorescent oligonucleotide biosensor [38].
A fluorophore quencher-coupled oligonucleotide biosensor was used for TDP1 enzyme activity real-time fluorescence detection. […] Recombinant protein TDP1 was expressed in Escherichia coli (pET 16B plasmid containing TDP1 cDNA was provided by Dr. K.W. Caldecott, University of Sussex, United Kingdom) and isolated as described by Lebedeva et al.. The reaction mixture contained TDP1 reaction buffer (50 mM Tris-HCl, 50 mM NaCl, 7 mM β-mercaptoethanol), 50 nM oligonucleotide substrate, varied concentrations of the tested compounds, and 1.5 nM purified TDP1 in a final volume of 200 μL.
The TDP1 reaction mixture was incubated at rt in a POLARstar OPTIMA fluorimeter (BMG LABTECH, GmbH). Fluorescence intensity was measured every 1 min (Ex485/Em520 nm). The efficiency of TDP1 inhibition was evaluated by comparing the rate of increase in the fluorescence of the biosensor in the presence of the compound to that of DMSO (1.5%) control wells. IC50 values were determined using an 11-point concentration–response curve. The data were imported into MARS Data Analysis 2.0 program (BMG LABTECH) and the slope during the linear phase was calculated. The IC50 measurements were carried out in at least three independent experiments.

Krebs-2 carcinoma cells = assay: Colorimetric cytotoxicity test, Krebs-2; assay type: cell-based
Description: The cytotoxicity of the compounds was examined against human cell lines HEK293FT (human embryonic kidney), WT and TDP1-deficient (TDP1-/-), HCT116 (human colon cancer), IMR-32 (human neuroblastoma cell line), HeLa (cervical cancer), and Krebs-2 carcinoma ascites using MTT and EZ4U colorimetric tests or an xCELLigence DP Real-Time Cell Analyzer (ACEA Biosciences, San Diego, CA, USA) for HEK293FT in cells exposed to the compounds. The cells were grown in DMEM/F12 or IMDM (for IMR-32 and Krebs-2) medium (Gibco), with 1x GlutaMAX (Gibco), 50 IU/mL penicillin, 50 μg/mL streptomycin (MP Biomedicals, Irvine, CA, USA) and in the presence of 10% fetal bovine serum (Biolot). The cells (~20,000 cells per well) were incubated for 24 h at 37 °C in 5% CO2, and then treated with the tested compounds (the volume of the added reagents was 1/100 of the total volume of the culture medium, the amount of DMSO was 1% of the final volume as indicated). Control cells were grown in the presence of 1% DMSO where indicated. After 72 h of cell incubation, the relative amount of living cells was determined using a colorimetric test of the amount of formazan converted from 3-(4,5-dimethylthiazol-2-yl)-2,5-diphenyl-2H-tetrazolium bromide (MTT test) or EZ4U Cell Proliferation and Cytotoxicity Assay (Biomedica, Austria), as per the manufacturer’s protocols. […]

[2] = test system: IMR-32 (human neuroblastoma cell line); assay: Colorimetric cytotoxicity test, IMR-32; assay type: cell-based
Description: (§1) The cytotoxicity of the compounds was examined against human cell lines HEK293FT (human embryonic kidney), WT and TDP1-deficient (TDP1-/-), HCT116 (human colon cancer), IMR-32 (human neuroblastoma cell line), HeLa (cervical cancer), and Krebs-2 carcinoma ascites using MTT and EZ4U colorimetric tests or an xCELLigence DP Real-Time Cell Analyzer (ACEA Biosciences, San Diego, CA, USA) for HEK293FT in cells exposed to the compounds. The cells were grown in DMEM/F12 or IMDM (for IMR-32 and Krebs-2) medium (Gibco), with 1x GlutaMAX (Gibco), 50 IU/mL penicillin, 50 μg/mL streptomycin (MP Biomedicals, Irvine, CA, USA) and in the presence of 10% fetal bovine serum (Biolot). The cells (~20,000 cells per well) were incubated for 24 h at 37 °C in 5% CO2, and then treated with the tested compounds (the volume of the added reagents was 1/100 of the total volume of the culture medium, the amount of DMSO was 1% of the final volume as indicated). Control cells were grown in the presence of 1% DMSO where indicated. After 72 h of cell incubation, the relative amount of living cells was determined using a colorimetric test of the amount of formazan converted from 3-(4,5-dimethylthiazol-2-yl)-2,5-diphenyl-2H-tetrazolium bromide (MTT test) or EZ4U Cell Proliferation and Cytotoxicity Assay (Biomedica, Austria), as per the manufacturer’s protocols. The real-time detection of the living cells was done by an xCELLigence DP Real-Time Cell Analyzer (ACEA Biosciences). The measurements were carried out in three parallel experiments.

HEK293FT TDP1−/− cells = assay: Colorimetric cytotoxicity test (MTT/EZ4U), HEK293FT TDP1-/-; assay type: cell-based, human; conditions: Tpc 30 nM
Description: (§2) We analyzed, using a colorimetric test, the relative amount of viable cells after treating HEK293FT WT and TDP1-deficient (TDP1−/−) cells with increasing concentrations of Tpc for 72 h. […] Next, we studied WT and mutant cells’ live activity after Tpc treatment on the xCELLigence System (ACEA Biosciences, USA) by the impedance-based assay. HEK293FT TDP1−/− cells were more sensitive to Tpc (Figure 2B). After Tpc administration to the cells, an […] of the slope was seen, characterizing the velocity of the cell growth with Tpc as compared to the control both for WT (red columns) and mutant cells (green columns) (Figure S1, Supplementary Materials). […] The sharper decrease of the slope for the mutant cells than for the WT (compare the histogram for the 0 and 0.05 μM Tpc concentration, ~1.5 times for WT cells (red) and ~6 times for TDP1−/−cells (green)) also characterizes the higher sensitivity of the mutant to the TOP1 inhibitor. […] There was a three-fold difference for these IC50 values, which is nearly the same as for the colorimetric assay.
as §1

[3] = test system: HeLa (cervical carcinoma); assay: Colorimetric cytotoxicity test, HeLa; assay type: cell-based, human
Description: as §1

[4] = test system: HCT116 (human colon cancer); assay: Colorimetric cytotoxicity test, HCT116; assay type: cell-based
Description: as §1

HEK293FT WT cells = assay: Colorimetric cytotoxicity test (MTT/EZ4U), HEK293FT WT; assay type: cell-based, human; conditions: Tpc 200 nM
Description: as §2, §1

Row | activity against TDP1 (in words) (TDP1) | IC50 (TDP1) [µM] | SMILES | also measured
1 | do not exhibit activity | > 20 | COc1cc(C2OC(C)(C)C3CC=C(C)C2C3)ccc1O (centres unmarked) [12a] | –
2 | – | 3.35 ± 1.06 | CC1=CC[C@@H]2C[C@H]1[C@H](c1cccs1)OC2(C)C [12d, (1R,4R,5R)-2,2,6-trimethyl-4-(thiophen-2-yl)-3-oxabicyclo[3.3.1]non-6-ene] | –
3 | – | 2.25 ± 0.63 | CC1=CC[C@@H]2C[C@H]1[C@H](c1sccc1C)OC2(C)C [12e, (1R,4R,5R)-2,2,6-trimethyl-4-(3-methylthiophen-2-yl)-3-oxabicyclo[3.3.1]non-6-ene] | –

More lines, now with the values behind:

Row | SMILES | activity against TDP1 (in words) (TDP1) | IC50 (TDP1) [µM] | also measured
4 | COc1cc(C2OC(C)(C)[C@@H]3CCC(C)=C[C@H]23)ccc1O (mixture of isomers) [11a] | do not exhibit activity | > 20 | neuroprotective activity (in vivo Parkinson model): potent neuroprotective activity; acute toxicity [1]: low acute toxicity
5 | C/C=C/C1OC(C)(C)[C@@H]2CCC(C)=C[C@H]12 (some centres unmarked) [11c] | do not exhibit activity | > 20 | –
6 | CC1=C[C@@H]2[C@@H](c3cccs3)OC(C)(C)[C@@H]2CC1 [11d, (1S,3aR,7aS)-3,3,6-trimethyl-1-(thiophen-2-yl)-1,3,3a,4,5,7a-hexahydroisobenzofuran] | – | 4.85 ± 1.06 | –
7 | CC1=C[C@@H]2[C@@H](c3sccc3C)OC(C)(C)[C@@H]2CC1 [11e, (1S,3aR,7aS)-3,3,6-trimethyl-1-(3-methylthiophen-2-yl)-1,3,3a,4,5,7a-hexahydroisobenzofuran] | – | 3.6 ± 1.7 | –
8 | CC1=C[C@@H]2[C@@H](c3ccc(C)s3)OC(C)(C)[C@@H]2CC1 [11f, (1S,3aR,7aS)-3,3,6-trimethyl-1-(5-methylthiophen-2-yl)-1,3,3a,4,5,7a-hexahydroisobenzofuran] | – | 4.7 ± 2 | –
9 | CC1=C[C@@H]2[C@@H](c3ccc(Br)s3)OC(C)(C)[C@@H]2CC1 [11h, (1S,3aR,7aS)-3,3,6-trimethyl-1-(5-bromothiophen-2-yl)-1,3,3a,4,5,7a-hexahydroisobenzofuran] | – | 0.75 ± 0.07 | intrinsic cytotoxicity (Krebs-2 carcinoma cells): low; intrinsic cytotoxicity ([2]; IMR-32): low; dose-dependent action of Tpc in the presence of inhibitor ([2]; IMR-32, Figure 4C): synergistic action; dose-dependent action of inhibitor in the presence of Tpc on cell growth ([2]; IMR-32, Tpc 8 nM, Figure 4B): suppressed cell growth; effect of TDP1 inhibitor in conjunction with Tpc on cell growth (HEK293FT TDP1−/− cells): not found; also recorded: no effect; intrinsic cytotoxicity [3]: low; enhancement of the Tpc cytotoxicity ([3]; data not shown): no enhancement; intrinsic cytotoxicity ([4]; HCT116): low; dose-dependent action of Tpc in the presence of inhibitor ([4]; HCT116, Figure 4C): enhanced Tpc’s potency; dose-dependent action of inhibitor in the presence of Tpc on cell growth ([4]; HCT, Tpc 900 nM, Figure 4B): no effect; effect of TDP1 inhibitor in conjunction with Tpc on cell growth (HEK293FT WT cells): cell growth suppression; also recorded: synergistic effect; also recorded: Suppressed cell growth
10 | CC1=C[C@@H]2[C@@H](c3ccsc3)OC(C)(C)[C@@H]2CC1 [11k, (1S(R),3aR,7aS)-3,3,6-trimethyl-1-(thiophen-3-yl)-1,3,3a,4,5,7a-hexahydroisobenzofuran] | – | 1.6 ± 0.56 | –
